# Measurements reported in US9371337B2, “β-lactamase inhibitors” (The Regents of the University of California, priority 2011, dated 2016).
# Like-named read-outs stand apart in the source and are kept apart here.
# Assays:
# [1] = target: T1, AmpC β-lactamase (Escherichia coli, UniProt P00811); test: biochemical; type: biochemical
# T1 construct: made in house
# Experimental: FIG. 18. Representative IC50 curves. […] IC50 curves were obtained by measuring rates (in duplicates) at different inhibitor concentrations (x-axis) and by determining the residual activity (y-axis, in percentage). IC50 values were determined by non-linear regression and Ki values calculated using GraphPad software assuming competitive inhibition.
# Sulfonamidomethaneboronic acids were dissolved in 100% DMSO at a concentration of 100 mM; more diluted stocks were prepared as necessary. […] The enzyme was expressed and purified as described (Usher, K. C. et al., Biochemistry 1998, 37, 16082-16092) and CENTA was purchased from Tydock Pharma.
# Kinetic measurements were run at room temperature in 50 mM sodium-cacodylate pH 6.5 in the presence of 0.01% Triton-X to prevent non-specific inhibition via compound aggregation. […] (Kettner, C. A. and Shenvi, A. B., J. Biol. Chem. 1984, 259, 15106-15114) Reactions were performed in 1 mL cuvettes with 60 μM CENTA and initiated by adding 1.2 nM enzyme. […] (Weston, G. S. et al., J. Med. Chem. 1998, 41, 4577-4586) The first 180 sec of each reaction were used to measure initial rates. IC50 values were obtained by fitting binding data to a sigmoidal dose-response equation using GraphPad Prism (GraphPad software, Inc). Ki values were determined by the use of Cheng-Prusoff equation. (Cheng, Y. and Prusoff, W. H., Biochem. Pharmacol. 1973, 22, 3099-3108)
# [2] = target: T2, α-chymotrypsin (bovine pancreatic) (Bos taurus, UniProt P00766); test: α-Chymotrypsin inhibition; type: biochemical; conditions: for activity at 100 µM: Table 4b, 100 μM inhibitor, read-out: Percentage activity with 100 μM inhibitor; for potency estimated from few doses: Table 4e, read-out: IC50 (Estimated from single concentration measurement); for Ki: Table 10, α-Chymotrypsin; for Selectivity vs AmpC (comparison of IC50 values): Table 4h, Chymotrypsin vs AmpC; for inhibition at 100 µM: read-out: Percentage inhibition with 100 μM inhibitor
# T2 construct: purchased Sigma-Aldrich
# Experimental: α-Chymotrypsin assays were performed in 50 mM Tris buffer pH 7.5 with 0.01% Triton-X. Inhibitor and 0.001 mg/mL enzyme were incubated at their final concentration for 10 min before the reaction was initiated by the addition of 200 μM N-succinyl-Ala-Ala-Pro-Phe p-nitroanilide and monitored at 410 nm.
# (§1) To assess the selectivity of the new molecules we determined Ki values against three common serine proteases, Trypsin, Elastase and α-Chymotrypsin, as well as that of a class A β-lactamase, CTX-M-9 (Table 10) (Pouvreau L, et al. (1998), FEBS Lett 423:167-172; Del Mar E G, et al. (1980), Biochemistry 19:468-472; Rodriguez-Martinez J A, et al. (2009), Biotechnol Lett 31:883-887; Chen Y, et al. (2005), J Mol Biol 348:349-362).
# [3] = target: CTX-M-9 β-lactamase (Escherichia coli, UniProt Q9L5C8); test: biochemical; type: biochemical; conditions: for Ki: Table 8, read-out: Ki vs CTX-M-9; for Selectivity vs AmpC (comparison of IC50 values): Table 4h, CTX-M-9 vs AmpC; for potency estimated from few doses: read-out: IC50 (Estimated from single concentration measurement); for inhibition at 16 µM: read-out: Percentage inhibition with 16 μM inhibitor
# Chain of CTX-M-9 β-lactamase (Q9L5C8 29-291): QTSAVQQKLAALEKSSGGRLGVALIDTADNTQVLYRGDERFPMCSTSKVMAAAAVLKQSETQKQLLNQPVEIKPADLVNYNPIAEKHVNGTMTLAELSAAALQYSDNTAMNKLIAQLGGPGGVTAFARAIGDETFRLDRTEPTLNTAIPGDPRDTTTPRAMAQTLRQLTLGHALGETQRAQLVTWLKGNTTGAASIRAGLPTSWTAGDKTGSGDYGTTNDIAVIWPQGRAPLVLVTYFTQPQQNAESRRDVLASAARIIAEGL
# Experimental: Reactions were initiated by the addition of 0.3 nM enzyme and monitored at 405 nm.
# as §1
# [4] = target: T3, Trypsin (UniProt P00760); test: Trypsin inhibition; type: biochemical; conditions: Table 10, Trypsin
# T3 construct: IC50 (Estimated from single concentration measurement); Ki
# T3 sequence (P00760 1-246): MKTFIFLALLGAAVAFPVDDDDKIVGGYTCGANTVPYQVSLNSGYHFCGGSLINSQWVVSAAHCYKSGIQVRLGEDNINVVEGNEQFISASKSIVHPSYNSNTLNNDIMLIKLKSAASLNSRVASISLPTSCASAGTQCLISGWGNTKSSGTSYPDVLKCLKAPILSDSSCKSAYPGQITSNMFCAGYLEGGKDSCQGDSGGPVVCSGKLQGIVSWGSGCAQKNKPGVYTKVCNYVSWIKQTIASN
# Text: as §1
# [5] = test system: Elastase; test: Elastase inhibition; type: biochemical; conditions: Table 4h, Elastase vs AmpC
# Text: as §1
# [6] = test system: clinical strains resistant to third-generation cephalosporins; test: MIC distribution of third-generation cephalosporins alone or with compounds over clinical strains; type: cell-based; conditions: for clinical isolates for which MICs dropped into the susceptible range (MICs≦1 μg/mL): cephalosporins combined with the compound; for MIC 25% percentile / MIC 75% percentile: third-generation cephalosporins in combination with the compound
# Experimental: The anti-resistance activity of inhibitors was investigated by the determination of the minimum inhibitory concentrations (MICs) of the β-lactam/inhibitor combination necessary to inhibit the growth of clinically-isolated bacteria resistant to third-generation cephalosporins via expression of class A or class C β-lactamases (Table 6).
# Susceptibility testing was performed and interpreted following the guidelines of CLSI. (Clinical and Laboratory Standards Institute, Performance standards for antimicrobial susceptibility testing, 20th Informational Supplement, M100-S20 2010) The compounds were dissolved in 50% DMSO, and dilutions were performed using Muller-Hinton medium. An adequate final concentration was obtained to determine the minimum inhibitory concentrations (MICs). The concentration of DMSO was maintained below 5%. The inhibitors were tested for synergy with the third-generation β-lactams ceftazidime and cefotaxime against several clinical bacteria. The ratio of β-lactams to inhibitors was 1:4. Each value reported reflects the average of three independent experiments. […] The Friedman's test and the Wilcoxon signed rank test were used to compare MIC values. Statistical significance was established at p<0.05.
# [7] = target: T1, AmpC β-lactamase; type: biochemical; conditions: for type of inhibition: Lineweaver-Burk analysis, competition with substrate CENTA; for time dependence of inhibition (incubation effect, off-rate): enzyme incubation and dilution experiments
# [8] = target: T3, Trypsin; test: Trypsin inhibition; type: biochemical; conditions: for Percentage activity with 100 μM inhibitor: Table 4b; for Percentage inhibition with 100 μM inhibitor: Table 4c; for potency estimated from few doses: read-out: IC50 (Estimated from single concentration measurement), Table 4e
# [9] = test system: Trypsin; test: Trypsin inhibition; type: biochemical; conditions: Table 4h, Trypsin vs AmpC
# [10] = Ki (from multi- or single concentration measurements), Table 4g
# T1 sequence (P00811 20-377): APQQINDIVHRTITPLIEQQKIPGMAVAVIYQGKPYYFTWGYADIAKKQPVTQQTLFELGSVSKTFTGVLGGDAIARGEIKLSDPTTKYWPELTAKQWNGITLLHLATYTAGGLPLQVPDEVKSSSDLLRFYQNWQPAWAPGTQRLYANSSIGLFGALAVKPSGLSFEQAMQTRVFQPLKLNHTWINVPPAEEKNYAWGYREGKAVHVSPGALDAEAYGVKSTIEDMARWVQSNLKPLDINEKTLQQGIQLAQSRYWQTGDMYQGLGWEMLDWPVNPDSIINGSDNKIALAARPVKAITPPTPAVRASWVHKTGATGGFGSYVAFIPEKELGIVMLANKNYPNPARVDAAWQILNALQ
smiles,measurement,setting,value
Cc1ccc(S(=O)(=O)N(C)CB(O)O)cc1 [CR14],Ki,"[1]; Ki Vs AmpC, Table 7",0.63 µM
Cc1ccc(S(=O)(=O)N(CB(O)O)C(C)(C)C)cc1 [CR17],Ki,"[1]; Ki Vs AmpC, Table 7",2.5 µM
CC(C)(C)N(CB(O)O)S(=O)(=O)Cc1ccccc1 [CR22],Ki,"[1]; Ki Vs AmpC, Table 7",5.1 µM
"O=S(=O)(NCB(O)O)c1ccc(-c2nnn[nH]2)cc1 [CR157, [4-(3-tetrazol-5-yl)benzensulfonylamino]methaneboronic acid]",activity at 100 µM,[2],90%
same,potency estimated from few doses,[2],900 µM
same,Ki,[2],224 µM
same,Selectivity vs AmpC (comparison of IC50 values),[2],145161
same,inhibition at 100 µM,[2],10%
same,IC50,[3],10.5 µM
same,Ki,[3],2.5 µM
same,Selectivity vs AmpC (comparison of IC50 values),[3],1694
same,potency estimated from few doses,[3],6 µM
same,inhibition at 16 µM,[3],73%
same,Ki,[4],350 µM
same,IC50,[1],0.0062 µM
same,Ki,[1]; Ki,0.0008 to 0.0013 µM
same,Ki,[1]; [10],0.0012 µM
same,Ki,"[1]; Ki Vs AmpC, Table 7",0.0012 µM
same,Ki,"[1]; Ki vs AmpC, Table 8",0.0012 µM
same,Ki,"[1]; Ki, Table 5",0.0012 µM
same,Ki,"[1]; Ki, Table 10, AmpC",0.0012 µM
same,Ligand efficiency,[1]; Table 5,0.63
same,Selectivity vs AmpC (comparison of IC50 values),[5],31309
same,clinical isolates for which MICs dropped into the susceptible range (MICs≦1 μg/mL),[6],25%
same,MIC 25% percentile,[6],1.5 µg/mL
same,MIC 75% percentile,[6],4.0 µg/mL
same,type of inhibition,[7],competitive
same,"time dependence of inhibition (incubation effect, off-rate)",[7],incubation effect owing to slow off-rates
same,Percentage activity with 100 μM inhibitor,[8],95
same,Percentage inhibition with 100 μM inhibitor,[8],5
same,potency estimated from few doses,[8],1900 µM
same,Selectivity vs AmpC (comparison of IC50 values),[9],306452
"O=S(=O)(NCB(O)O)c1ccc(-c2nn[nH]n2)nc1 [CR161, [6-(3-tetrazol-5-yl)pyridin-3-sulfonylamino]methaneboronic acid hydrocloride]",activity at 100 µM,[2],90%
same,potency estimated from few doses,[2],900 µM
same,Ki,[2],224 µM
same,Selectivity vs AmpC (comparison of IC50 values),[2],136364
same,inhibition at 100 µM,[2],10%
same,IC50,[3],6.7 µM
same,Ki,[3],3.9 µM
same,Selectivity vs AmpC (comparison of IC50 values),[3],1015
same,potency estimated from few doses,[3],8 µM
same,inhibition at 16 µM,[3],66%
same,Ki,[4],350 µM
same,IC50,[1],0.0066 µM
same,Ki,[1]; Ki,0.0008 to 0.0013 µM
same,Ki,[1]; [10],0.0008 µM
same,Ki,"[1]; Ki Vs AmpC, Table 7",0.0008 µM
same,Ki,"[1]; Ki vs AmpC, Table 8",0.0008 µM
same,Ki,"[1]; Ki, Table 5",0.0008 µM
same,Ki,"[1]; Ki, Table 10, AmpC",0.0008 µM
same,Ligand efficiency,[1]; Table 5,0.64
same,Selectivity vs AmpC (comparison of IC50 values),[5],25799
same,clinical isolates for which MICs dropped into the susceptible range (MICs≦1 μg/mL),[6],75%
same,MIC 25% percentile,[6],0.5 µg/mL
same,MIC 75% percentile,[6],1.5 µg/mL
same,type of inhibition,[7],competitive
same,"time dependence of inhibition (incubation effect, off-rate)",[7],incubation effect owing to slow off-rates
same,Percentage activity with 100 μM inhibitor,[8],95
same,Percentage inhibition with 100 μM inhibitor,[8],5
same,potency estimated from few doses,[8],1900 µM
same,Selectivity vs AmpC (comparison of IC50 values),[9],287879
"N#Cc1ccc(S(=O)(=O)NCB(O)O)cc1 [CR162, [4-cyanobenzensulfonylamino]methaneboronic acid]",Ki,"[1]; Ki Vs AmpC, Table 7",0.31 µM
same,Ki,"[1]; Ki vs AmpC, Table 8",0.31 µM
"N#Cc1ccc(S(=O)(=O)NCB(O)O)cn1 [CR163, [6-cyanopyridin-3-sulfonylamino]methaneboronic acid hydrocloride]",Ki,"[1]; Ki Vs AmpC, Table 7",0.27 µM
same,Ki,"[1]; Ki vs AmpC, Table 8",0.27 µM
"CC(C)[C@H](NS(=O)(=O)Cc1ccccc1)B(O)O [CR173, (1R)-1-(Phenylmethanesulfonylamino)-2-methylpropaneboronic acid]",Ki,"[1]; Ki Vs AmpC, Table 7",13 µM
"CC(C)[C@H](NS(C)(=O)=O)B(O)O [CR175, (1R)-1-(Methylsulfonylamino)-2-methylpropaneboronic acid]",Ki,"[1]; Ki Vs AmpC, Table 7",100 µM
"CC1(C)OB(c2ccccc2NS(=O)(=O)Cc2ccccc2)OC1(C)C [CR180, Pinacol 2-(phenylmethanesulfonylamino)phenylboronate]",Ki,"[1]; Table 7, read-out: Ki Vs AmpC",0.2 µM
"CC1(C)OB(c2ccccc2NS(C)(=O)=O)OC1(C)C [CR181, Pinacol 2-(methylsulfonylamino)phenylboronate]",Ki,"[1]; Table 7, read-out: Ki Vs AmpC",0.4 µM
